Experimental data: patent US11466024B2, “Bicylic compound acting as an inhibitor” (CHIA TAI TIANQING PHARMACEUTICAL GROUP CO., LTD., priority 2017, dated 2022)

Biological target: hERG potassium channel (Homo sapiens, UniProt Q12809)
Assay: in vitro
Settings: human
Method: CHO-hERG cells (from Shanghai Institute of Materia Medica, Chinese Academy of Sciences) were cultured in a 175 cm^2 culture flask. When the cell density reached 60% to 80%, the culture medium was removed, the cells were washed once with 7 mL of PBS, and then 3 mL of Detachin was added for cell detachment. After complete cell detachment, 7 mL of culture medium were added for neutralization, the mixture was then centrifuged, the supernatant was aspirated, and another 5 mL of culture medium was added for re-suspension, so as to ensure that the cell density was 2×10^6/mL to 5×10^6/mL.
The single-cell giga-seal and the formation of whole-cell mode were both completed automatically by a Q patch instrument. After a whole-cell recording mode was achieved, the cells were clamped at −80 mV, exposed to a front voltage of −50 mV for 50 ms prior to a depolarizing stimulus (5 s, +40 mV), and then repolarized to −50 mV for 5 s, followed by a recovery to −80 mV. This voltage stimulation was applied every 15 s and recorded for 2 minutes, and the extracellular fluid was then administered, followed by a record lasting for 5 minutes. Thereafter, the administration process was started. Starting from the lowest test concentration, the compounds were administered at each test concentration and the process lasted for 2.5 minutes. […] At least 3 cells (n≥3) were tested at each concentration.
20 mM stock solution of the compound was diluted with the extracellular fluid, and 5 μL of the 20 mM stock solution of the compound was taken, added to 2495 μL of the extracellular fluid, and diluted by 500 times to 40 μM. Thereafter, the resulting mixture was serially and successively diluted by 3 times in an extracellular fluid containing 0.2% DMSO, so as to obtain a final concentration to be tested.
The experimental data was analyzed by XLFit software.

Chain of hERG potassium channel (Q12809 whole entry): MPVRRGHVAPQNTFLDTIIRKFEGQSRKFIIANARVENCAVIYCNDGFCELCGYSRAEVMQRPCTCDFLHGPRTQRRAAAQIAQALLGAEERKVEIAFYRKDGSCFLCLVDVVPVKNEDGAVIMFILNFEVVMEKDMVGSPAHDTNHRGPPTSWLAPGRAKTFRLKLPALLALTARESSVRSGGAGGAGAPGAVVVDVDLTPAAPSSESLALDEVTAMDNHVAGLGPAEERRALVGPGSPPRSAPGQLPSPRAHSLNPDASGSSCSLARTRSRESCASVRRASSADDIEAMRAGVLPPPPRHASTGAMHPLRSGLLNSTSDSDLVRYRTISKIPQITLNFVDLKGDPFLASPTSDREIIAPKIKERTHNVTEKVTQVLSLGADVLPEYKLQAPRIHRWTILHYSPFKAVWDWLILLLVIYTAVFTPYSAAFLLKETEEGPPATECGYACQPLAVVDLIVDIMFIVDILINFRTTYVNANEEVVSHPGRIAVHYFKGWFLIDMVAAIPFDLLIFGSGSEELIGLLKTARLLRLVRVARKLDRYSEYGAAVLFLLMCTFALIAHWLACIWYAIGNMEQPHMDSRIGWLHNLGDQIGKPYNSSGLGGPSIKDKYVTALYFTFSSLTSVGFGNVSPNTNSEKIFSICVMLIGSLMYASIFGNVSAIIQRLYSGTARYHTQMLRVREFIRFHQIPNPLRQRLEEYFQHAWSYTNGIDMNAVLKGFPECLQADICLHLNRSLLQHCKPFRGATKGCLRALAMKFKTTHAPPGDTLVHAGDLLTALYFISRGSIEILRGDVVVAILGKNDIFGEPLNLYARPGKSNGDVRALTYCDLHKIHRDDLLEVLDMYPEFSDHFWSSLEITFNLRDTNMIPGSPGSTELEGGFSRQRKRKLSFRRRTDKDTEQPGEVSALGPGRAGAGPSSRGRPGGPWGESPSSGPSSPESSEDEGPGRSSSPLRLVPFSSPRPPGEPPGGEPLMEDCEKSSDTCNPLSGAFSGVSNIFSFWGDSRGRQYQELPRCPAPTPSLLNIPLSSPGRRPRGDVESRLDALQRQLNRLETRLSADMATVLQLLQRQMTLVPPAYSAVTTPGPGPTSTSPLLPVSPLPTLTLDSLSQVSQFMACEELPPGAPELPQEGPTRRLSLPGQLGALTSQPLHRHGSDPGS

## COc1cc(N)c(Cl)cc1C(=O)NC1CCN(CCCOc2ccc(F)cc2)CC1OC (stereo not shown) [Cisapride, reference compound]
  inhibition at 2.5 min, 40 μM: 89.6%
